Experimental data published in patent publication US7935826B2, “Insecticidal N-substituted (heteroaryl)cycloalkyl sulfoximines” (Dow AgroSciences LLC, priority 2006, dated 2011).

What was measured:
Format in all cases: in vivo
[1] = system: Cotton Aphid (Aphis gossypii); test: Insecticidal test for cotton aphid in foliar spray assay on squash; parameters: key: A: 90-100; B: 80-89; C: 70-79; D: 60-69; E: 50-59; F: Less than 50; G: Inactive; H: Not tested; conditions: Corrected % Control (Abbott), 3 days after spray
Experimental: Insecticidal Test for Cotton Aphid (Aphis gossypii) in Foliar Spray Assay Squash with fully expanded cotyledon leaves were trimmed to one cotyledon per plant and infested with cotton aphid (wingless adult and nymph) 1 day prior to chemical application. Each plant was examined before chemical application to ensure proper infestation (ca. 30-70 aphids per plant). Compounds (2 mg) were dissolved in 2 ml of acetone:methanol (1:1) solvent, forming stock solutions of 1000 ppm. The stock solutions were diluted 5× with 0.025% Tween 20 in H2O to obtain a solution at 200 ppm. Lower concentrations (50, 12.5, 3.125, 0.781 and 0.195 ppm) were prepared by making sequential 4× dilutions from the 200 ppm solution with a diluent consisting 80 parts of 0.025% Tween 20 in H2O and 20 parts of acetone:methanol (1:1). A hand-held Devilbiss sprayer was used to apply the spray solutions until runoff to both sides of the squash cotyledon leaves. Four plants (4 replications) were used for each concentration of each compound. Reference plants (solvent check) were sprayed with the diluent only. Treated plants were held in a holding room for 3 days at approximately 23° C. and 40% RH before the number of live aphids on each plant was recorded. Insecticidal activity was measured by Corrected % Control using Abbott's correction formula and presented in Table 1: Corrected % Control=100*(X−Y)/X • where X=No. of live aphids on solvent check plants • Y=No. of live aphids on treated plants

[2] = system: Green Peach Aphid (Myzus persicae); test: Insecticidal test for green peach aphid in foliar spray assay on cabbage; parameters: key: A: 90-100; B: 80-89; C: 70-79; D: 60-69; E: 50-59; F: Less than 50; G: Inactive; H: Not tested; conditions: Corrected % Control (Abbott), three days after spray
Experimental: Insecticidal Test for Green Peach Aphid (Myzus persicae) in Foliar Spray Assay Cabbage seedlings grown in 3-inch pots, with 2-3 small (3-5 cm) true leaves, were used as test substrate. The seedlings were infested with 20-50 green peach aphids (wingless adult and nymph) 2-3 days prior to chemical application. Four seedlings were used for each treatment. Compounds (2 mg) were dissolved in 2 ml of acetone:methanol (1:1) solvent, forming stock solutions of 1000 ppm. The stock solutions were diluted 5× with 0.025% Tween 20 in H2O to obtain a solution at 200 ppm. Lower concentrations (50, 12.5, 3.125 and 0.781 ppm) were prepared by making sequential 4× dilutions from the 200 ppm solution with a diluent consisting 80 parts of 0.025% Tween 20 in H2O and 20 parts of acetone:methanol (1:1). A hand-held Devilbiss sprayer was used for spraying a solution to both sides of cabbage leaves until runoff. Reference plants (solvent check) were sprayed with the diluent only. Treated plants were held in a holding room for three days at approximately 23° C. and 40% RH prior to grading. Evaluation was conducted by counting the number of live aphids per plant under a microscope. Insecticidal activity was measured by using Abbott's correction formula: Corrected % Control=100*(X−Y)/X • where X=No. of live aphids on solvent check plants • Y=No. of live aphids on treated plants

[3] = system: Sweet Potato Whitefly (Bemisia tabaci); test: Insecticidal test for sweet potato whitefly in foliar spray assay on cotton; conditions: live large nymphs counted 12 days after spray of egg-infested leaves
Source text: Insecticidal Test for Sweet Potato Whitefly (Bemisia tabaci) in Foliar Spray Assay This test was designed to measure the capability of whitefly eggs and/or young nymphs to develop to large nymphs. Cotton seedlings at the growth stage of one or two expanding true leaf were trimmed so that only the first true leaf remained (cotyledon leaves were also removed). The plants were pre-infested with sweet potato whitefly eggs by keeping plants next to the colony-keeping plants for two days. The infested plants were carefully checked for presence of similar egg density before use in the insecticidal tests. Master solutions of test compounds at 1000 ppm were prepared in acetone: methanol (1:1). The 12.5 ppm spray solutions were then made by diluting 0.188 mL of the master solution with 14.812 ml of 0.025% Tween 20 in water. The lower concentrations were made by diluting the 12.5 ppm spray solution with a diluent consisting 98.75 parts of 0.025% Tween 20 in water and 1.25 parts of acetone:methanol (1:1). The diluent was used as solvent control. The test solutions were sprayed with a hand-held Devilbiss sprayer until runoff to both sides of the infested cotton leaves. Four plants (4 replications) were used for each treatment. Treated plants were held in a holding room for 12 days at approximately 23° C. and 40% RH before evaluation. To evaluate the efficacy of the compounds, the number of live large nymphs in an area of 1 square inch on the lower surface of the treated cotton leaves was counted under a microscope. Insecticidal activity was determined by Corrected % Control using Abbott's correction formula and presented in Table 3: Corrected % Control=100*(X−Y)/X • where X=No. of live large nymphs on solvent check plants • Y=No. of live large nymphs on treated plants

[4] = system: Brown Planthopper (Nilaparvata lugens); test: Root-uptake systemic assay on rice, brown planthopper; conditions: 10 ppm in water of rice seedlings, 3rd instar nymphs, mortality observed at 2 and 6 days (day of tabled value not stated)
Experimental: (§1) Insecticidal Test for Brown Planthopper (Nilaparvata lugens) and Green Leafhopper (Nephotettix sp.) A root-uptake systemic assay was performed on both brown planthopper and green leafhopper. Four-week-old rice seedlings were submerged in 3-cm depth of water in the bottom portion (high 5 cm, diameter 3 cm) of a 2-part glass cylinder (high 18 cm, diameter 3 cm). A metal screen was used to hold the seedlings within the bottom portion. Scotch tape was used to bind the two portions of the cylinder after setting up the seedlings. A metal cap was used to cover the cylinder. There were 4 cylinders for each treatment. The test compound was dissolved in acetone to make a 10,000 ppm stock solution. The stock solution was incorporated at final test concentrations of 10 ppm in the water in which rice seedlings were submerged. Five laboratory-reared 3rd instar nymphs of brown planthopper or green leafhopper were introduced into each cylinder 3 hr after insecticide application. The treated test units were kept in a growth chamber with conditions set as followings: Temperature 28±0.5° C.; Relative humidity 70±0.5%; Photoperiod […].

[5] = system: Green Leafhopper (Nephotettix sp.); test: Root-uptake systemic assay on rice, green leafhopper; conditions: 10 ppm in water of rice seedlings, 3rd instar nymphs, mortality observed at 2 and 6 days (day of tabled value not stated)
Experimental: as §1

| SMILES | % Control at ppm, against cotton aphid on squash (foliar spray) ([1]; 0.78 ppm) | % Control at ppm, against cotton aphid on squash (foliar spray) ([1]; 3.13 ppm) | % Control at ppm, against cotton aphid on squash (foliar spray) ([1]; 12.5 ppm) | % Control at ppm, against cotton aphid on squash (foliar spray) ([1]; 50 ppm) | % Control at ppm, against green peach aphid on cabbage (foliar spray) ([2]; 0.78 ppm) | % Control at ppm, against green peach aphid on cabbage (foliar spray) ([2]; 3.13 ppm) | % Control at ppm, against green peach aphid on cabbage (foliar spray) ([2]; 12.5 ppm) | % Control at ppm, against green peach aphid on cabbage (foliar spray) ([2]; 50 ppm) | % Control at ppm, against green peach aphid on cabbage (foliar spray) ([2]; 200 ppm) | % Control at ppm, against sweet potato whitefly on cotton, foliar spray ([3]; 0.781 ppm) | % Control at ppm, against sweet potato whitefly on cotton, foliar spray ([3]; 3.125 ppm) | % Control at ppm, against sweet potato whitefly on cotton, foliar spray ([3]; 12.500 ppm) | % Systemic Control at 10 ppm on rice, Brown Planthopper [4] | % Systemic Control at 10 ppm on rice, Green Leafhopper [5] |
| --- | --- | --- | --- | --- | --- | --- | --- | --- | --- | --- | --- | --- | --- | --- |
| CS(=O)(=NC#N)C1(c2ccc(C(F)(F)F)nc2)CC1 (stereo not drawn) [Compound 1, methyl(oxido) {1-[6-(trifluoromethyl)pyridin-3-yl]cyclopropyl}-λ^4-sulfanylidenecyanamide] | A (90-100) | A (90-100) | A (90-100) | A (90-100) | F (Less than 50) | B (80-89) | A (90-100) | A (90-100) | A (90-100) |  |  |  |  |  |
| CS(=O)(=NC#N)C1(c2ccc(Cl)nc2)CC1 (stereo not drawn) [Compound 2, methyl(oxido) [1-(6-chloropyridin-3-yl)cyclopropyl]-λ^4-sulfanylidenecyanamide] | A (90-100) | A (90-100) |  |  | D (60-69) | A (90-100) |  |  |  | F (Less than 50) | E (50-59) | C (70-79) | E (50-59) | B (80-89) |
| CS(=O)(=NC#N)C1(c2ccc(Cl)nc2)CCC1 (stereo not drawn) [Compound 3, methyl(oxido)[1-(6-chloropyridin-3-yl)cyclobutyl]-λ^4-sulfanylidenecyanamide] |  |  |  | A (90-100) |  |  |  |  |  |  |  |  |  |  |
| CS(=O)(=NC#N)C1(c2ccc(Cl)nc2)CCCC1 (stereo not drawn) [Compound 4, methyl(oxido)[1-(6-chloropyridin-3-yl)cyclopentyl]-λ^4-sulfanylidenecyanamide] |  |  |  | A (90-100) |  |  |  |  |  |  |  |  |  |  |
| CS(=O)(=NC#N)C1(c2ccc(Cl)nc2)CCCCC1 (stereo not drawn) [Compound 5, methyl(oxido)[1-(6-chloropyridin-3-yl)cyclohexyl]-λ^4-sulfanylidenecyanamide] | G | A (90-100) | A (90-100) | A (90-100) |  |  |  |  |  |  |  |  |  |  |
| CS(=O)(=NC#N)C1(c2ccc(Cl)nc2)CCOCC1 (stereo not drawn) [Compound 6, methyl(oxido)[4-(6-chloropyridin-3-yl)tetra hydro-pyran-4-yl]-λ^4-sulfanylidenecyanamide] | A (90-100) | A (90-100) | A (90-100) | A (90-100) | G | G | G | G | A (90-100) |  |  |  |  |  |
